The values that follow come from PMC12069340 (Frontiers in Cellular and Infection Microbiology, 2025).

Broadly, the viability is a read-out of living cells in per cent, often relative to untreated cells. One may read the inhibition as the relative decrease from the control value, in per cent.

Counter-ions that a name gives are not always drawn.

Tested on in the first series: not listed separately
As to the kind of experiment: in vitro. The settings on record: human, Relative Viability (%).
Regarding `CC(C)(C)NCC(O)c1cc(O)cc(O)c1` (stereo not shown) [Terbutaline Sulfate], the viability at 20 µM is 101%.

Take `Cc1cccc([C@H](C)c2cnc[nH]2)c1C` [Dexmedetomidine HCl (Precedex), Dexmedetomidine HCl]: the viability at 20 µM worked out at 120%.

Consider `CN(C)C(=O)Oc1cccc([N+](C)(C)C)c1` [Neostigmine Bromide], for which the viability at 20 µM is 114%.

As to `CC(C[N+](C)(C)C)OC(N)=O` (stereo not shown) [Bethanechol chloride], the viability at 20 µM is 103%.

Take `O=c1ccc2ccc(OCCCCN3CCN(c4cccc5sccc45)CC3)cc2[nH]1` [Brexpiprazole]: the viability at 20 µM was determined as 97.2%.

Take `Cc1ccsc1C(=CCCN1CCC[C@@H](C(=O)O)C1)c1sccc1C` [Tiagabine]: the viability at 20 µM came out at 95.7%.

Regarding `CCN(Cc1ccc(Cl)nc1)/C(=C/[N+](=O)[O-])NC` [Nitenpyram], the viability at 20 µM amounted to 110%.

With `Clc1cccc(Cl)c1N=C1NCCN1` [Clonidine HCl], the viability at 20 µM is 99.2%.

For `CC(C)(C)NC[C@H](O)COc1nsnc1N1CCOCC1` [Timolol Maleate], the viability at 20 µM was 91.2%.

Take `CN1CCC[C@@H]1CCO[C@](C)(c1ccccc1)c1ccc(Cl)cc1` [Clemastine Fumarate]: the viability at 20 µM was 88.5%.

For `CC(C)(C)c1ccc(C(=O)CCCN2CCC(OC(c3ccccc3)c3ccccc3)CC2)cc1` [Ebastine], the viability at 20 µM turned out to be 105%.

Take `CN[C@H]1CC[C@@H](c2ccc(Cl)c(Cl)c2)c2ccccc21` [Sertraline HCl]: the viability at 20 µM was 124%.

For `Cc1ccccc1C(OCCN(C)C)c1ccccc1` (stereo not shown) [Orphenadrine Citrate], the viability at 20 µM came to 106%.

On to `CN1CC2c3ccccc3Oc3ccc(Cl)cc3C2C1` (stereo not shown) [Asenapine], for which the viability at 20 µM is 87.1%.

Another series concerns A/PuertoRico/8/1934 (H1N1) virus. As to the kind of experiment: microbe, parasite or virus in culture. It is filed as cell-based, influenza A virus. Particulars: 20 µM.
For `CCc1ccc(OCc2ccccc2C(=O)Nc2ccc3nc(C)cc(N)c3c2)cc1` [JTC-801], the “NA Inhibition (%)” value amounted to 41.4%.

Take `Cc1cccc([C@H](C)c2cnc[nH]2)c1C` [Dexmedetomidine HCl (Precedex), Dexmedetomidine HCl]: the “NA Inhibition (%)” value is -18.5%.

For `Br.Br.NCCCCCNCC12CC3CC(CC(C3)C1)C2` [IEM 1754 dihydrobroMide], the “NA Inhibition (%)” value was found to be 23.2%.

`Cc1cccc([C@H](C)c2cnc[nH]2)c1C` [Dexmedetomidine]: the “NA Inhibition (%)” value is 21.4.

As for `O=C(O)CCCN1CCC(O[C@@H](c2ccc(Cl)cc2)c2ccccn2)CC1.O=S(=O)(O)c1ccccc1` [Bepotastine Besilate], the “NA Inhibition (%)” value worked out at 21.1%.

For the compound `COc1ccc(NS(=O)(=O)c2sc3ccc(Cl)cc3c2C)cc1N1CCNCC1.Cl` [SB271046 HCl], the “NA Inhibition (%)” value was determined as 18.8%.

With `CC(C)c1cc(-c2ccc(F)c3ccccc23)nc(N)n1` [RS-127445], the “NA Inhibition (%)” value came out at 20.3%.

In the case of `Cc1cccc(C#Cc2ccccc2)n1` [MPEP], the “NA Inhibition (%)” value was determined as 32.6%.

With `CC(C)N(CCC(c1ccccc1)c1cc(CO)ccc1O)C(C)C` (stereo not shown) [5-hydroxymethyl Tolterodine], the “NA Inhibition (%)” value came to 6.5%.

`CN1CCC(c2c[nH]c3ccc(O)cc23)CC1` [BRL-54443]: the “NA Inhibition (%)” value was found to be 23.6%.

Consider `CCCCOc1ccc(C(=O)Nc2ccc(F)cc2F)cc1` [VU 0357121], for which the “NA Inhibition (%)” value amounted to 29.7%.

On to `COc1ccccc1N1CCN(CCN(C(=O)C2CCCCC2)c2ccccn2)CC1.O=C(O)/C=C\C(=O)O` [WAY-100635 Maleate], for which the “NA Inhibition (%)” value worked out at 9.1%.

Turning to `O=C(c1ccc(F)cc1)N1CCC[C@H](c2nc(-c3ccc(F)cc3)no2)C1` [ADX-47273], the “NA Inhibition (%)” value worked out at 34.4%.

For `OC(CN1CCN(c2cccc(Cl)c2)CC1)C(c1ccccc1)c1ccccc1` (stereo not shown) [BRL-15572], the “NA Inhibition (%)” value came to 24.4%.

On to `O=C(Nc1cccc(Cl)c1)c1ccccn1` [VU 0364770], for which the “NA Inhibition (%)” value amounted to 28.5%.

For the compound `Cl.Cl.NCCc1c[nH]cn1` [Histamine 2HCl], the “NA Inhibition (%)” value worked out at 2.5.

Turning to (-)-MK 801 Maleate, the “NA Inhibition (%)” value was 26.1%.

Take `CN1CCN(c2nc3ccccc3nc2Cl)CC1` [VUF 10166]: the “NA Inhibition (%)” value turned out to be 7.6%.

`CCC1=C[C@@H]2CN3CCc4c([nH]c5ccccc45)[C@@](C(=O)OC)(C2)[C@@H]13` [Catharanthine]: the “NA Inhibition (%)” value stood at 42.3%.

For the compound `COc1cc(OC)c(NC(=O)Nc2cc(C)on2)cc1Cl` [PNU-120596], the “NA Inhibition (%)” value is on record as -38.3%.

Consider `CNCC(=O)c1ccc(O)c(O)c1.Cl` [Adrenalone HCl], for which the “NA Inhibition (%)” value came to 6.4%.

`Cc1cncc(CN2CCC(=C3c4ccc(Cl)cc4CCc4cccnc43)CC2)c1.O=C(O)/C=C/C(=O)O` [Rupatadine Fumarate]: the “NA Inhibition (%)” value worked out at 22.5%.

On to `CNCCc1ccccn1.Cl.Cl` [Betahistine 2HCl], for which the “NA Inhibition (%)” value amounted to 4.8%.

As to `CN(C)CCC(c1ccc(Br)cc1)c1ccccn1.O=C(O)/C=C\C(=O)O` (stereo not shown) [Brompheniramine hydrogen maleate], the “NA Inhibition (%)” value is 12.4%.

In the case of L-Adrenaline, the “NA Inhibition (%)” value is recorded as -38.4.

Turning to `CN1c2ccccc2C(NCCCCCCC(=O)[O-])c2ccc(Cl)cc2S1(=O)=O.[Na+]` (stereo not shown) [Tianeptine sodium], the “NA Inhibition (%)” value stood at 4.5%.

As for `CN1[C@@H]2CC(O)C[C@H]1[C@@H]1O[C@@H]12` (stereo partly shown) [Scopine], the “NA Inhibition (%)” value was -19.4%.

Regarding `Cc1nc(C#Cc2ccnc(Cl)c2)c(C)n1-c1ccc(OC(F)(F)F)cc1` [CTEP (RO4956371)], the “NA Inhibition (%)” value was found to be 31.0%.

The series is the same for the next values; noted with them: Influenza A virus, H1N1, U-937, 48 h, read-out: NA Inhibition (%).
As for `CC(C)(C)NCC(O)c1cc(O)cc(O)c1` (stereo not shown) [Terbutaline Sulfate], the inhibition at 20 µM was determined as 39.1%.

As to `Clc1cccc(Cl)c1N=C1NCCN1` [Clonidine HCl], the inhibition at 20 µM is -24.1%.

In the case of `CC(C)(C)NC[C@H](O)COc1nsnc1N1CCOCC1` [Timolol Maleate], the inhibition at 20 µM turned out to be 33.2%.

For `C[C@]12N[C@H](Cc3ccccc31)c1ccccc12` [MK-801 (Dizocilpine), Dizocilpine], the inhibition at 20 µM was found to be 20.9%.

As to `CN1CCN(C(=O)c2cc3cc(Cl)ccc3[nH]2)CC1` [JNJ-7777120], the inhibition at 20 µM is 19.7%.

Regarding `CN(C)CCCN1c2ccccc2CCc2ccc(Cl)cc21` [Clomipramine HCl], the inhibition at 20 µM is -11.3%.

Turning to `CC(=O)SCC(Cc1ccccc1)C(=O)NCC(=O)OCc1ccccc1` (stereo not shown) [Racecadotril], the inhibition at 20 µM was -29.5%.

For `CN1[C@@H]2C[C@@H](OC(=O)[C@H](CO)c3ccccc3)C[C@H]1[C@@H]1O[C@@H]12` [Scopolamine HBr], the inhibition at 20 µM was -0.4%.

For the compound `CC(C)(C(=O)O)c1ccc(C(O)CCCN2CCC(C(O)(c3ccccc3)c3ccccc3)CC2)cc1` (stereo not shown) [Fexofenadine HCl], the inhibition at 20 µM is -9.9%.

In the case of `CNC[C@H](O)c1ccc(O)c(O)c1` [Epinephrine HCl], the inhibition at 20 µM was 7.1%.

Turning to `CNCCCC12CCC(c3ccccc31)c1ccccc12` [Maprotiline HCl], the inhibition at 20 µM is -23.2%.

For `COc1cc(NC(=O)c2ccccn2)ccc1Cl` [VU 0361737], the inhibition at 20 µM was 23.5%.

On to `COc1cc2c(cc1OC)C(=O)C(CC1CCN(Cc3ccccc3)CC1)C2` (stereo not shown) [Donepezil HCl], for which the inhibition at 20 µM came out at 4.5%.

As to `O=c1n(CCCN2CCN(c3cccc(Cl)c3)CC2)nc2ccccn12` [Trazodone HCl], the inhibition at 20 µM is -9.8%.

Consider `C=CCN1CC[C@]23c4c5ccc(O)c4O[C@H]2C(=O)CC[C@@]3(O)[C@H]1C5` [Naloxone HCl], for which the inhibition at 20 µM stood at 25.4%.

Regarding `Cc1ccc(O)c([C@H](CCN(C(C)C)C(C)C)c2ccccc2)c1` [Tolterodine tartrate], the inhibition at 20 µM was -12%.

`CNC[C@H](O)c1cccc(O)c1` [Phenylephrine HCl]: the inhibition at 20 µM is 4.9%.

With `COCCCN1CCC(NC(=O)c2cc(Cl)c(N)c3c2OCC3)CC1` [Prucalopride], the inhibition at 20 µM was 20.7%.

The same series, now with this note: Influenza A virus, H1N1, U-937, 48 h; read-out: NA Inhibition (%).
On to `CN(C)C(=O)Oc1cccc([N+](C)(C)C)c1` [Neostigmine Bromide], for which the inhibition at 20 µM worked out at 2%.

Consider `CC(C[N+](C)(C)C)OC(N)=O` (stereo not shown) [Bethanechol chloride], for which the inhibition at 20 µM worked out at 2.2%.

`O=c1ccc2ccc(OCCCCN3CCN(c4cccc5sccc45)CC3)cc2[nH]1` [Brexpiprazole]: the inhibition at 20 µM amounted to 54%.

As for `Cc1ccsc1C(=CCCN1CCC[C@@H](C(=O)O)C1)c1sccc1C` [Tiagabine], the inhibition at 20 µM amounted to 14.2%.

On to `CCN(Cc1ccc(Cl)nc1)/C(=C/[N+](=O)[O-])NC` [Nitenpyram], for which the inhibition at 20 µM is -32.4%.

Regarding `C[N+]1(C)[C@@H]2C[C@@H](OC(=O)C(O)(c3cccs3)c3cccs3)C[C@H]1[C@@H]1O[C@@H]12` [Tiotropium Bromide hydrate], the inhibition at 20 µM was -34.7%.

As to `CCN(CC)CC(=O)Nc1c(C)cccc1C` [Lidocaine], the inhibition at 20 µM is 5.1%.

With `Cc1cccc(C)c1N=C1NCCCS1` [Xylazine HCl], the inhibition at 20 µM is -20%.

As for `CC(NCCc1ccc(O)cc1)C(O)c1ccc(O)cc1` (stereo not shown) [Ritodrine HCl], the inhibition at 20 µM is -20.6%.

`CC[N+](CC)(CC)CCOc1cccc(OCC[N+](CC)(CC)CC)c1OCC[N+](CC)(CC)CC` [Gallamine Triethiodide]: the inhibition at 20 µM is -9%.

`C[N+]1(C)[C@@H]2CC[C@H]1C[C@@H](OC(=O)C(O)c1ccccc1)C2` (stereo partly shown) [Homatropine Methylbromide]: the inhibition at 20 µM was -12%.

`COc1ccccc1N1CCN(CCN2C(=O)CC3(CCCC3)CC2=O)CC1` [BMY 7378]: the inhibition at 20 µM turned out to be 23.8%.

On to `CC(COc1ccccc1)N(CCCl)Cc1ccccc1` (stereo not shown) [Phenoxybenzamine HCl], for which the inhibition at 20 µM turned out to be 95.4%.

For the compound `CCc1cc2c(cc1CC)CC(NC[C@H](O)c1ccc(O)c3[nH]c(=O)ccc13)C2` [Indacaterol Maleate], the inhibition at 20 µM is -6%.

Regarding `CN1CCC(=C2c3ccccc3C=Cc3ccccc32)CC1` [Cyproheptadine HCl], the inhibition at 20 µM came out at 4.6%.

Consider `O=C(O)c1cccnc1Nc1cccc(C(F)(F)F)c1` [Niflumic acid], for which the inhibition at 20 µM was determined as 23.7%.

For the compound `c1ccc2c(CC3=NCCN3)cccc2c1` [Naphazoline HCl], the inhibition at 20 µM was -18.7%.

For `COC(=O)C1=CCCN(C)C1` [Arecoline], the inhibition at 20 µM was -10.6%.

For the compound `CCCCCCCCOc1ccccc1C(=O)Nc1ccc(C(=O)OCC[N+](C)(CC)CC)cc1` [Otilonium Bromide], the inhibition at 20 µM is -2.3%.

Regarding `CN1[C@@H]2CC[C@H]1C[C@@H](OC(=O)C(CO)c1ccccc1)C2` (stereo partly shown) [Atropine], the inhibition at 20 µM is -5.8%.

Turning to `O=S(=O)(c1ccccc1)c1cnc2c(N3CCNCC3)cccc2c1` [SB742457], the inhibition at 20 µM came to 16.8%.

For `CN1CCC[C@@H]1Cc1c[nH]c2ccc(CCS(=O)(=O)c3ccccc3)cc12` [Eletriptan HBr], the inhibition at 20 µM was determined as 20.2%.
